Results reported in US20220106328A1, “HETEROCYCLIC COMPOUNDS” (Hoffmann-La Roche Inc., priority 2019, published 2022).

Molecular target: T1, MAGL (Homo sapiens, UniProt Q99685)
T1 sequence (Q99685 1-303): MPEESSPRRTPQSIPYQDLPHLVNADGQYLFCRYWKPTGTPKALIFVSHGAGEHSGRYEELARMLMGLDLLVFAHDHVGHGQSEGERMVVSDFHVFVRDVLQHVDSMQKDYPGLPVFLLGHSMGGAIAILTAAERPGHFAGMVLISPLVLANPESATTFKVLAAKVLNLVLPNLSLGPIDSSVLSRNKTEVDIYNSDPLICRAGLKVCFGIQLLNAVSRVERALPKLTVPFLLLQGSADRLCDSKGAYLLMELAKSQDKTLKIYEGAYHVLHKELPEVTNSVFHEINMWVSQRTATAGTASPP
Test: 2-AG assay (MAGL inhibitory activity; hydrolysis of 2-arachidonoylglycerol to arachidonic acid followed by mass spectrometry)
Assay type: biochemical
Conditions: 8 μM 2-arachidonoylglycerol, 15 min pre-incubation, 30 min incubation at rt, RapidFire MS read-out
Experimental: Compounds were profiled for MAGL inhibitory activity by determining the enzymatic activity by following the hydrolysis of the natural substrate 2-arachidonoylglycerol resulting in arachidonic acid, which can be followed by mass spectrometry. This assay is hereinafter abbreviated “2-AG assay”.
A C18 SPE cartridge (G9205A) was used in an ACN/water liquid setup. […] The activity of the compounds was calculated based on the ratio of intensities [arachidonic acid/d8-arachidonic acid].

| SMILES | IC50 [nM] |
| --- | --- |
| O=C(N1CC(OCc2ccc(C(F)(F)F)cc2F)C1)N1CC[C@H]2OCCN[C@@H]2C1 (racemic) [Example 31, [3-[[2-Fluoro-4-(trifluoromethyl)phenyl]methoxy]azetidin-1-yl]-[rac-(4aR,8aR)-2,3,4,4a,5,7,8,8a-octahydropyrido[4,3-b][1,4]oxazin-6-yl]methanone] | 2010 |
| CC(C)(C)c1ccc(C2CN(C(=O)N3CCC4OCC(=O)NC4C3)C2)cc1 (single isomer, unassigned) [Example 1, (+)- or (−)-trans-6-[3-(4-tert-Butylphenyl)azetidine-1-carbonyl]-4,4a,5,7,8,8a-hexahydropyrido[4,3-b][1,4]oxazin-3-one] | 235 |
| CC(C)(C)c1ccc(C2CN(C(=O)N3CCC4OCC(=O)NC4C3)C2)cc1 (single isomer, unassigned) [Example 2, (−)- or (+)-trans-6-[3-(4-tert-Butylphenyl)azetidine-1-carbonyl]-4,4a,5,7,8,8a-hexahydropyrido[4,3-b][1,4]oxazin-3-one] | 39 |
| O=C1COC2CCN(C(=O)N3CC(c4ccc(C5(C(F)(F)F)CC5)cc4)C3)CC2N1 (single isomer, unassigned) [Example 3, (+)- or (−)-trans-6-[3-[4-[1-(Trifluoromethyl)cyclopropyl]phenyl]azetidine-1-carbonyl]-4,4a,5,7,8,8a-hexahydropyrido[4,3-b][1,4]oxazin-3-one] | 95 |
| O=C1COC2CCN(C(=O)N3CC(c4ccc(C5(C(F)(F)F)CC5)cc4)C3)CC2N1 (single isomer, unassigned) [Example 4, (−)- or (+)-trans-6-[3-[4-[1-(Trifluoromethyl)cyclopropyl]phenyl]azetidine-1-carbonyl]-4,4a,5,7,8,8a-hexahydropyrido[4,3-b][1,4]oxazin-3-one] | 15 |
| O=C1COC2CCN(C(=O)N3CC(OCc4ccc(C(F)(F)F)cc4F)C3)CC2N1 (single isomer, unassigned) [Example 5, (+)- or (−)-trans-6-[3-[[2-Fluoro-4-(trifluoromethyl)phenyl]methoxy]azetidine-1-carbonyl]-4,4a,5,7,8,8a-hexahydropyrido[4,3-b][1,4]oxazin-3-one] | 327 |
| O=C1COC2CCN(C(=O)N3CC(OCc4ccc(C(F)(F)F)cc4F)C3)CC2N1 (single isomer, unassigned) [Example 6, (−)- or (+)-trans-6-[3-[[2-Fluoro-4-(trifluoromethyl)phenyl]methoxy]azetidine-1-carbonyl]-4,4a,5,7,8,8a-hexahydropyrido[4,3-b][1,4]oxazin-3-one] | 143 |
| O=C1CO[C@@H]2CCN(C(=O)N3CC(c4ccc(OC(F)(F)F)c(Cl)c4)C3)C[C@H]2N1 (single isomer, unassigned) [Example 7, (+)- or (−)-trans-6-[3-[3-Chloro-4-(trifluoromethoxy)phenyl]azetidine-1-carbonyl]-4,4a,5,7,8,8a-hexahydropyrido[4,3-b][1,4]oxazin-3-one] | 424 |
| O=C1CO[C@H]2CCN(C(=O)N3CC(c4ccc(OC(F)(F)F)c(Cl)c4)C3)C[C@@H]2N1 (single isomer, unassigned) [Example 8, (−)- or (+)-trans-6-[3-[3-Chloro-4-(trifluoromethoxy)phenyl]azetidine-1-carbonyl]-4,4a,5,7,8,8a-hexahydropyrido[4,3-b][1,4]oxazin-3-one] | 56 |
| O=C1CO[C@@H]2CCN(C(=O)N3CC(c4ccc(Oc5ccccc5)cc4)C3)C[C@H]2N1 (single isomer, unassigned) [Example 11, (+)- or (−)-trans-6-[3-(4-Phenoxyphenyl)azetidine-1-carbonyl]-4,4a,5,7,8,8a-hexahydropyrido[4,3-b][1,4]oxazin-3-one] | 47 |
| O=C1CO[C@H]2CCN(C(=O)N3CC(c4ccc(Oc5ccccc5)cc4)C3)C[C@@H]2N1 (single isomer, unassigned) [Example 12, (−)- or (+)-trans-6-[3-(4-Phenoxyphenyl)azetidine-1-carbonyl]-4,4a,5,7,8,8a-hexahydropyrido[4,3-b][1,4]oxazin-3-one] | 7 |
| O=C1CO[C@@H]2CCN(C(=O)N3CC(c4ccc(-c5ccc(F)cc5F)cc4)C3)C[C@H]2N1 (single isomer, unassigned) [Example 13, (+)- or (−)-trans-6-[3-[4-(2,4-Difluorophenyl)phenyl]azetidine-1-carbonyl]-4,4a,5,7,8,8a-hexahydropyrido[4,3-b][1,4]oxazin-3-one] | 93 |
| O=C1CO[C@H]2CCN(C(=O)N3CC(c4ccc(-c5ccc(F)cc5F)cc4)C3)C[C@@H]2N1 (single isomer, unassigned) [Example 14, (−)- or (+)-trans-6-[3-[4-(2,4-Difluorophenyl)phenyl]azetidine-1-carbonyl]-4,4a,5,7,8,8a-hexahydropyrido[4,3-b][1,4]oxazin-3-one] | 28 |
| O=C1CO[C@@H]2CCN(C(=O)N3CC(c4ccc(CC(F)(F)F)cc4)C3)C[C@H]2N1 (single isomer, unassigned) [Example 15, (+)- or (−)-trans-6-[3-[4-(2,2,2-Trifluoroethyl)phenyl]azetidine-1-carbonyl]-4,4a,5,7,8,8a-hexahydropyrido[4,3-b][1,4]oxazin-3-one] | 357 |
| O=C1CO[C@H]2CCN(C(=O)N3CC(c4ccc(CC(F)(F)F)cc4)C3)C[C@@H]2N1 (single isomer, unassigned) [Example 16, (−)- or (+)-trans-6-[3-[4-(2,2,2-Trifluoroethyl)phenyl]azetidine-1-carbonyl]-4,4a,5,7,8,8a-hexahydropyrido[4,3-b][1,4]oxazin-3-one] | 58 |
| O=C1CO[C@@H]2CCN(C(=O)N3CC4(CC(Cc5ccc(F)cc5F)C4)C3)C[C@H]2N1 (single isomer, unassigned) [Example 17, (+)- or (−)-trans-6-[6-[(2,4-Difluorophenyl)methyl]-2-azaspiro[3.3]heptane-2-carbonyl]-4,4a,5,7,8,8a-hexahydropyrido[4,3-b][1,4]oxazin-3-one] | 24 |
| O=C1CO[C@H]2CCN(C(=O)N3CC4(CC(Cc5ccc(F)cc5F)C4)C3)C[C@@H]2N1 (single isomer, unassigned) [Example 18, (−)- or (+)-trans-6-[6-[(2,4-Difluorophenyl)methyl]-2-azaspiro[3.3]heptane-2-carbonyl]-4,4a,5,7,8,8a-hexahydropyrido[4,3-b][1,4]oxazin-3-one] | 12 |
| O=C1CO[C@H]2CCN(C(=O)N3CC(c4ccc(Oc5ccccc5Cl)nc4)C3)C[C@@H]2N1 (single isomer, unassigned) [Example 19, (−)- or (+)-trans-6-[3-[6-(2-Chlorophenoxy)-3-pyridyl]azetidine-1-carbonyl]-4,4a,5,7,8,8a-hexahydropyrido[4,3-b][1,4]oxazin-3-one] | 32 |
| O=C1CO[C@@H]2CCN(C(=O)N3CC(OCc4ccc(C(F)(F)F)cc4Cl)C3)C[C@H]2N1 (single isomer, unassigned) [Example 20, (+)- or (−)-trans-6-[3-[[2-Chloro-4-(trifluoromethyl)phenyl]methoxy]azetidine-1-carbonyl]-4,4a,5,7,8,8a-hexahydropyrido[4,3-b][1,4]oxazin-3-one] | 220 |
| O=C1CO[C@H]2CCN(C(=O)N3CC(OCc4ccc(C(F)(F)F)cc4Cl)C3)C[C@@H]2N1 (single isomer, unassigned) [Example 21, (−)- or (+)-trans-6-[3-[[2-Chloro-4-(trifluoromethyl)phenyl]methoxy]azetidine-1-carbonyl]-4,4a,5,7,8,8a-hexahydropyrido[4,3-b][1,4]oxazin-3-one] | 78 |
| O=C1CO[C@@H]2CCN(C(=O)N3CC(OCc4ccc(OC(F)(F)F)cc4)C3)C[C@H]2N1 (single isomer, unassigned) [Example 22, (+)- or (−)-trans-6-[3-[[4-(Trifluoromethoxy)phenyl]methoxy]azetidine-1-carbonyl]-4,4a,5,7,8,8a-hexahydropyrido[4,3-b][1,4]oxazin-3-one] | 920 |
| O=C1CO[C@H]2CCN(C(=O)N3CC(OCc4ccc(OC(F)(F)F)cc4)C3)C[C@@H]2N1 (single isomer, unassigned) [Example 23, (−)- or (+)-trans-6-[3-[[4-(Trifluoromethoxy)phenyl]methoxy]azetidine-1-carbonyl]-4,4a,5,7,8,8a-hexahydropyrido[4,3-b][1,4]oxazin-3-one] | 411 |
| O=C1CO[C@@H]2CCN(C(=O)N3CCC(C(c4ccc(F)cc4)c4ccc(F)cc4)CC3)C[C@H]2N1 (single isomer, unassigned) [Example 24, (+)- or (−)-trans-6-[4-[Bis(4-fluorophenyl)methyl]piperidine-1-carbonyl]-4,4a,5,7,8,8a-hexahydropyrido[4,3-b][1,4]oxazin-3-one] | 208 |
| O=C1CO[C@H]2CCN(C(=O)N3CCC(C(c4ccc(F)cc4)c4ccc(F)cc4)CC3)C[C@@H]2N1 (single isomer, unassigned) [Example 25, (−)- or (+)-trans-6-[4-[Bis(4-fluorophenyl)methyl]piperidine-1-carbonyl]-4,4a,5,7,8,8a-hexahydropyrido[4,3-b][1,4]oxazin-3-one] | 5 |
